One test relates to δ-cat. In words: δ-cat nuclear translocation in primary neurons, immunolabeling morphometry. The format is cell-based, rat. Conditions: KP vs vehicle, FIG. 8C. How it is done: Immunocytochemistry labeling of cultured neuronal cells was carried out as previously described (Liedtke et al., 2013, Small 9, 1066-1075; Yeo et al., 2009, J Neurosci 29:14652-14662; Yeo et al., 2013, Proc Natl Acad Sci USA 110:4315-4320). Primary antibodies are shown in the antibody table. Anti-KCC2 primary antibodies were validated with developing rat primary cortical neurons; we observed an increase in staining pattern that tightly matched increase of KCC2 mRNA expression (Liedtke et al., 2013, Small 9:1066-1075; Yeo et al., 2009, J Neurosci 29:14652-14662.; Yeo et al., 2013, Proc Natl Acad Sci USA 110:4315-4320). Secondary antibodies used were goat anti-mouse IgG Alexa Fluor 594 (Invitrogen A11032) and goat anti-rabbit IgG Alexa Fluor 594 (Invitrogen A11012). DAPI stain was obtained from Sigma Aldrich (D9542). Stained cells were observed using an inverted confocal microscope (Zeiss LSM780).
We obtained stacks of images recorded at 0.35 μm intervals through separate channels with a 63× oil-immersion lens (NA, 1.40, refraction index, 1.45). Zen software (Zeiss) was used to construct composite images from each optical series by combining the images recorded through the different channels, and the same software was used to obtain Z projection images (image resolution: 1024×1024 pixels; pixel size: 0.11 μm). ImageJ was used for morphometry. […]

In test [1] the test system is delta-cat binding to KCC2 promoter. In words: ChIP with anti-delta-cat antibody at KCC2 promoter. It counts as cell-based, rat. As to conditions: KP-treatment vs vehicle. How it is done: ChIP assay was carried out as described previously (Yeo et al., 2009, J Neurosci 29:14652-14662; Yeo et al., 2013, Proc Natl Acad Sci USA 110:4315-4320). Primary cortical neurons (0.7×10^6) were used for each ChIP experiment. Cells were crosslinked with 1% formaldehyde for 30 min, washed twice with cold PBS, resuspended in lysis buffer [1% SDS, 10 mm EDTA, and 50 mm Tris-HCl, pH 8.0, with protease inhibitor cocktail (Roche)], and sonicated for 15 s pulses. The lysates were clarified by centrifugation at 10,000 rpm for 10 min at 4° C. in a microcentrifuge. One-tenth of the total lysate was used as input control of genomic DNA. Supernatants were collected and diluted in buffer (1% Triton X-100, 2 mm EDTA, 150 mm NaCl, 20 mm Tris-HCl, pH 8.0, and protease inhibitor cocktail) followed by immunoclearing with 1 mg of salmon sperm DNA, 10 ml of rabbit IgG, and 20 ml of protein A/G-Sepharose (Santa Cruz Biotechnology) for 1 h at 4° C. Immunoprecipitation was performed overnight at 4° C. with 2 mg of each specific antibody. Precipitates were washed sequentially for 10 min each in TSE1 buffer (0.1% SDS, 1% Triton X-100, 2 mm EDTA, 150 mm NaCl, and 20 mm Tris-HCl, pH 8.0), TSE2 (TSE1 with 500 mm NaCl), and TSE3 (0.25 m LiCl, 1% NP-40, 1% deoxycholate, 1 mm EDTA, and 10 mm Tris-HCl, pH 8.0). Precipitates were then washed twice with 10 mm Tris/0.1 mm EDTA, pH 7.8 and extracted with 1% SDS containing 0.1 m NaHCO3. Eluates were pooled and heated at 65° C. for 4 h to reverse formaldehyde crosslinking. DNA fragments were purified with Qiagen Qiaquick spin kit. For ChIP PCR, 1 l of a 25 l DNA extraction was used.
Consequently, catenins effects on the KCC2 promoter was explored.

The next test addresses T1, GSK3β (Rattus norvegicus, UniProt P18266).
T1 construct: endogenous in cells; host or cells: primary rat cortical neurons
The test is described as follows: DARTS assay, GSK3β. It counts as binding. Conditions: 20 μM KP; independent of detergent treatment. On the procedure:
Cultured primary rat cortical neurons were treated with either vehicle DMSO (0.1%) or 20 μM KP for 30 h. Cells were lysed in ice-cold lysis buffer (Tris.Cl pH8 50 mM, NaCl 150 mM, NP40 0.5%, N-dodecyl-b-D-maltoside 0.5%, Phosphatase Inhibitor (Pierce #88667) and Protease Inhibitor (Roche #11836153001)). Protein concentrations were determined by Bio-Rad DC Protein Assay kit using bovine albumin as standard. All steps were performed on ice. Samples were warmed to room temperature and digested with pronase (final concentration 1:500) for 30 min at 30° C. Digestion was halted using 0.5M EDTA. Only proteins not bound to KP were digested. The protein mixture was dialyzed using dialysis cassettes (Thermo Fisher 66203, 2K MWCO) and analyzed by LC-MS/MS method to identify proteins that are bound to KP, the latter step carried out in the Duke Proteomics Core Laboratory.
A drug affinity responsive target stability (DARTS) assay (Lomenick, et al., 2009, Proc Natl Acad Sci USA 106:21984-21989) was used to study direct binding of KP to GSK3ß (FIG. 8A) in primary cortical neurons. The findings were consistent with previous reports in cell lines (Knockaert, et al., 2002, The Journal of biological chemistry 277:25493-25501) yet novel in primary neurons. […]

T1 sequence (P18266 whole entry): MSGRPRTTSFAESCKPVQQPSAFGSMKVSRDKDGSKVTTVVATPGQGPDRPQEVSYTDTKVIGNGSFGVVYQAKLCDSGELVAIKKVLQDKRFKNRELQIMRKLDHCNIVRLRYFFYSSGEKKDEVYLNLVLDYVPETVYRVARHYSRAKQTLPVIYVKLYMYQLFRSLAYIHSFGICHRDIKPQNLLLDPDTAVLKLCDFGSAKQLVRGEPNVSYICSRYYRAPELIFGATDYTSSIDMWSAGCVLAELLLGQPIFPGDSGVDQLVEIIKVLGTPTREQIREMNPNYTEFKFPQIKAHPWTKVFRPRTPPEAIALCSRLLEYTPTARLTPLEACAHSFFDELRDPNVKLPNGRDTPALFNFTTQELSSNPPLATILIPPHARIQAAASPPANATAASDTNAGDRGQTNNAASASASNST

Consider `O=C1Cc2c([nH]c3ccc(Br)cc23)-c2ccccc2N1` [kenpaullone, 9-bromo-7,12-dihydro-indolo [3,2-d] [1]benzazepin-6(5H)-one], for which, in the test with δ-cat, the δ-cat nuclear translocation entry is listed as “significantly increases”. Besides, in test [1], the “binding of delta-cat to Kaiso1 site” value was “significantly reduced binding”, the “binding of delta-cat to Kaiso2 site” value is recorded as “significantly increases binding” and the “binding of delta-cat to TCF site” value is listed as “non-significant increase”. At GSK3β, the “binding of KP to GSK3ß” value is on record as “documented”.

The record behind these values is patent publication US20220281930A1, “COMPOSITIONS AND METHODS FOR THE TREATMENT OF PATHOLOGICAL PAIN AND ITCH” (DUKE UNIVERSITY, priority 2019, published 2022).
